Where two headings read alike, the source gives them in different places.
What was measured:
[1] = Compound cytotoxicity, XTT-based colorimetric assay; assay type: cell-based; settings: human
Experimental: Compound cytotoxicity and the corresponding CC50 values were determined using the same protocol as described in the antiviral assay except that uninfected cells were used. Cytotoxicity was assessed on day 4 in uninfected MT2 cells by using a XTT (2,3-bis[2-Methoxy-4-nitro-5-sulfophenyl]-2H-tetrazolium-5-carboxyanilide inner salt)-based colorimetric assay (Sigma-Aldrich, St Louis, Mo.).

recombinant NL4-3 virus = test: HIV cell culture assay (antiviral activity, luciferase readout in MT-2 cells); assay type: cell-based; settings: Human immunodeficiency virus 1, NL43, MT2
Experimental: HIV cell culture assay—MT-2 cells, 293T cells and the proviral DNA clone of NL4-3 virus were obtained from the […] AIDS Research and Reference Reagent Program. MT-2 cells were propagated in RPMI 1640 media supplemented with 10% heat inactivated fetal bovine serum (FBS), […] penicillin G and up to 100 units/mL streptomycin. The 293T cells were propagated in DMEM media supplemented with 10% heat inactivated FBS, […] penicillin G and […] streptomycin. A recombinant NL4-3 proviral clone, in which a section of the nef gene was replaced with the Renilla luciferase gene, was used to make the reference virus used in these studies. The recombinant virus was prepared through transfection of the recombinant NL4-3 proviral clone into 293T cells using Transit-293 Transfection Reagent from Mirus Bio LLC (Madison, Wis.). Supernatent was harvested after 2-3 days and the amount of virus present was titered in MT-2 cells using luciferase enzyme activity as a marker by measuring luciferase enzyme activity. Luciferase was quantitated using the EnduRen Live Cell Substrate from Promega (Madison, Wis.). Antiviral activities of compounds toward the recombinant virus were quantified by measuring luciferase activity in MT-2 cells infected for 4-5 days with the recombinant virus in the presence of serial dilutions of the compound.
The 50% effective concentration (EC50) was calculated by using the exponential form of the median effect equation where (Fa)=1/[1+(ED50/drug conc.)m] (Johnson V A, Byington R T. Infectivity Assay. In Techniques in HIV Research. ed. Aldovini A, Walker B D. 71-76. New York: Stockton Press. 1990). The 50% inhibitory concentration (EC50) was calculated by using the exponential form of the median effect equation where percent inhibition=1/[1+(EC50/drug concentration)m], where m is a parameter that reflects the slope of the concentration-response curve.

[2] = uninfected MT2 cells, day 4, XTT, read-out: CC50

C[C@@H]1CN(c2ccc3c(=O)n(-c4ccc(Cl)c5c(NS(C)(=O)=O)nn(CC(F)F)c45)c([C@H](Cc4cc(F)cc(F)c4)NC(=O)Cn4nc(C5CC5)c5ccccc54)nc3c2)C[C@H](C)O1 (atropisomer, axis not shown; (P)) [Example 44, N—((S)-1-((3P)-3-(4-chloro-1-(2,2-difluoroethyl)-3-(methylsulfonamido)-1H-indazol-7-yl)-7-((2S,6R)-2,6-dimethylmorpholino)-4-oxo-3,4-dihydroquinazolin-2-yl)-2-(3,5-difluorophenyl)ethyl)-2-(3-cyclopropyl-1H-indazol-1-yl)acetamide]
CC50 at 4 days [1, 2]: > 500 nM | EC50 (recombinant NL4-3 virus): 0.59 nM

Cn1nc(NS(C)(=O)=O)c2c(Cl)ccc(-n3c([C@H](Cc4cc(F)cc(F)c4)NC(=O)Cn4nc(C(F)F)c5c4C(F)(F)[C@@H]4C[C@H]54)nc4cc(N5CCC5)ccc4c3=O)c21 (atropisomer, axis not shown; (P)) [Example 18, N—((S)-1-(7-(azetidin-1-yl)-(3P)-3-(4-chloro-1-methyl-3-(methylsulfonamido)-1H-indazol-7-yl)-4-oxo-3,4-dihydroquinazolin-2-yl)-2-(3,5-difluorophenyl)ethyl)-2-((3bS,4aR)-3-(difluoromethyl)-5,5-difluoro-3b,4,4a,5-tetrahydro-1H-cyclopropa[3,4]cyclopenta[1,2-c]pyrazol-1-yl)acetamide]
CC50 at 4 days [1, 2]: > 1000 nM | EC50 (recombinant NL4-3 virus): 0.066 nM

C[C@@H]1CN(c2ccc3c(=O)n(-c4ccc(Cl)c5c(NS(=O)(=O)C6CC6)nn(CC(F)(F)F)c45)c([C@H](Cc4cc(F)cc(F)c4)NC(=O)Cn4nc(C(F)F)c5c4C(F)(F)[C@@H]4C[C@H]54)nc3c2)C[C@H](C)O1 (atropisomer, axis not shown; (P)) [Example 62, N—((S)-1-((3P)-3-(4-chloro-3-(cyclopropanesulfonamido)-1-(2,2,2-trifluoroethyl)-1H-indazol-7-yl)-7-((2S,6R)-2,6-dimethylmorpholino)-4-oxo-3,4-dihydroquinazolin-2-yl)-2-(3,5-difluorophenyl)ethyl)-2-((3bS,4aR)-3-(difluoromethyl)-5,5-difluoro-3b,4,4a,5-tetrahydro-1H-cyclopropa[3,4]cyclopenta[1,2-c]pyrazol-1-yl)acetamide]
CC50 at 4 days [1, 2]: > 500 nM | EC50 (recombinant NL4-3 virus): 0.067 nM

Cn1nc(NS(C)(=O)=O)c2c(Cl)ccc(-n3c([C@H](Cc4cc(F)cc(F)c4)NC(=O)Cn4nc(C(F)F)c5c4C(F)(F)[C@@H]4C[C@H]54)nc4cc(N5C6CCC5COC6)ccc4c3=O)c21 [Example 64, N—((S)-1-(7-((1R,5S)-3-oxa-8-azabicyclo[3.2.1]octan-8-yl)-(3P)-3-(4-chloro-1-methyl-3-(methylsulfonamido)-1H-indazol-7-yl)-4-oxo-3,4-dihydroquinazolin-2-yl)-2-(3,5-difluorophenyl)ethyl)-2-((3bS,4aR)-3-(difluoromethyl)-5,5-difluoro-3b,4,4a,5-tetrahydro-1H-cyclopropa[3,4]cyclopenta[1,2-c]pyrazol-1-yl)acetamide]
CC50 at 4 days [1]: > 500 nM | EC50 (recombinant NL4-3 virus): 0.037 nM

Cn1nc(NS(C)(=O)=O)c2c(Cl)ccc(-n3c([C@H](Cc4cc(F)cc(F)c4)NC(=O)Cn4nc(C(F)F)c5c4C(F)(F)[C@@H]4C[C@H]54)nc4cc(N5CCOC(C)(C)C5)ccc4c3=O)c21 (atropisomer, axis not shown; (P)) [Example 4, N—((S)-1-((3P)-3-(4-chloro-1-methyl-3-(methylsulfonamido)-1H-indazol-7-yl)-7-(2,2-dimethylmorpholino)-4-oxo-3,4-dihydroquinazolin-2-yl)-2-(3,5-difluorophenyl)ethyl)-2-((3bS,4aR)-3-(difluoromethyl)-5,5-difluoro-3b,4,4a,5-tetrahydro-1H-cyclopropa[3,4]cyclopenta[1,2-c]pyrazol-1-yl)acetamide]
CC50 at 4 days [1, 2]: > 500 nM | EC50 (recombinant NL4-3 virus): 0.063 nM

C[C@@H]1CN(c2ccc3c(=O)n(-c4ccc(Cl)c5c(NS(C)(=O)=O)nn(C)c45)c([C@H](Cc4cc(F)cc(F)c4)NC(=O)Cn4nc(C(F)F)c5c4C(F)(F)[C@@H]4C[C@H]54)nc3c2)C[C@H](C)N1C (atropisomer, axis not shown; (P)) [Example 16, N—((S)-1-((3P)-3-(4-chloro-1-methyl-3-(methylsulfonamido)-1H-indazol-7-yl)-4-oxo-7-((3S,5R)-3,4,5-trimethylpiperazin-1-yl)-3,4-dihydroquinazolin-2-yl)-2-(3,5-difluorophenyl)ethyl)-2-((3bS,4aR)-3-(difluoromethyl)-5,5-difluoro-3b,4,4a,5-tetrahydro-1H-cyclopropa[3,4]cyclopenta[1,2-c]pyrazol-1-yl)acetamide]
CC50 at 4 days [1, 2]: > 1000 nM | EC50 (recombinant NL4-3 virus): 0.08 nM

C[C@@H]1CN(c2ccc3c(=O)n(-c4ccc(Cl)c5c(NS(C)(=O)=O)nn(CC(F)F)c45)c([C@H](Cc4cc(F)cc(F)c4)NC(=O)Cn4nc(C5CC5)cc4C(F)F)nc3c2)C[C@H](C)O1 (atropisomer, axis not shown; (P)) [Example 47, N—((S)-1-((3P)-3-(4-chloro-1-(2,2-difluoroethyl)-3-(methylsulfonamido)-1H-indazol-7-yl)-7-((2S,6R)-2,6-dimethylmorpholino)-4-oxo-3,4-dihydroquinazolin-2-yl)-2-(3,5-difluorophenyl)ethyl)-2-(3-cyclopropyl-5-(difluoromethyl)-1H-pyrazol-1-yl)acetamide]
CC50 at 4 days [1, 2]: > 500 nM | EC50 (recombinant NL4-3 virus): 0.96 nM

C[C@@H]1CN(c2ccc3c(=O)n(-c4ccc(Cl)c5c(NS(C)(=O)=O)nn(CC(F)F)c45)c([C@H](Cc4cc(F)cc(F)c4)NC(=O)Cc4cn(C5CC5)c5ccccc45)nc3c2)C[C@H](C)O1 [Example 52, N—((S)-1-((3P)-3-(4-chloro-1-(2,2-difluoroethyl)-3-(methylsulfonamido)-1H-indazol-7-yl)-7-((2S,6R)-2,6-dimethylmorpholino)-4-oxo-3,4-dihydroquinazolin-2-yl)-2-(3,5-difluorophenyl)ethyl)-2-(1-cyclopropyl-1H-indol-3-yl)acetamide]
CC50 at 4 days [1, 2]: > 500 nM | EC50 (recombinant NL4-3 virus): 1.1 nM

Cn1nc(NS(C)(=O)=O)c2c(Cl)ccc(-n3c([C@H](Cc4cc(F)cc(F)c4)NC(=O)Cn4nc(C(F)F)c5c4C(F)(F)[C@@H]4C[C@H]54)nc4cc(N5CCC(S(C)(=O)=O)CC5)ccc4c3=O)c21 (atropisomer, axis not shown; (P)) [Example 30, N—((S)-1-((3P)-3-(4-chloro-1-methyl-3-(methylsulfonamido)-1H-indazol-7-yl)-7-(4-(methylsulfonyl)piperidin-1-yl)-4-oxo-3,4-dihydroquinazolin-2-yl)-2-(3,5-difluorophenyl)ethyl)-2-((3bS,4aR)-3-(difluoromethyl)-5,5-difluoro-3b,4,4a,5-tetrahydro-1H-cyclopropa[3,4]cyclopenta[1,2-c]pyrazol-1-yl)acetamide]
CC50 at 4 days [1, 2]: > 500 nM | EC50 (recombinant NL4-3 virus): 0.381 nM

COC1CCN(c2ccc3c(=O)n(-c4ccc(Cl)c5c(NS(C)(=O)=O)nn(C)c45)c([C@H](Cc4cc(F)cc(F)c4)NC(=O)Cn4nc(C(F)F)c5c4C(F)(F)[C@@H]4C[C@H]54)nc3c2)CC1 (atropisomer, axis not shown; (P)) [Example 28, N—((S)-1-((3P)-3-(4-chloro-1-methyl-3-(methylsulfonamido)-1H-indazol-7-yl)-7-(4-methoxypiperidin-1-yl)-4-oxo-3,4-dihydroquinazolin-2-yl)-2-(3,5-difluorophenyl)ethyl)-2-((3bS,4aR)-3-(difluoromethyl)-5,5-difluoro-3b,4,4a,5-tetrahydro-1H-cyclopropa[3,4]cyclopenta[1,2-c]pyrazol-1-yl)acetamide]
CC50 at 4 days [1, 2]: > 500 nM | EC50 (recombinant NL4-3 virus): 0.12 nM

C[C@@H]1CN(c2ccc3c(=O)n(-c4ccc(Cl)c5c(NS(C)(=O)=O)nn(CC(F)F)c45)c([C@H](Cc4cc(F)cc(F)c4)NC(=O)Cn4ccc(C5CCC5)n4)nc3c2)C[C@H](C)O1 (atropisomer, axis not shown; (P)) [Example 50, N—((S)-1-((3P)-3-(4-chloro-1-(2,2-difluoroethyl)-3-(methylsulfonamido)-1H-indazol-7-yl)-7-((2S,6R)-2,6-dimethylmorpholino)-4-oxo-3,4-dihydroquinazolin-2-yl)-2-(3,5-difluorophenyl)ethyl)-2-(3-cyclobutyl-1H-pyrazol-1-yl)acetamide]
CC50 at 4 days [1, 2]: > 500 nM | EC50 (recombinant NL4-3 virus): 0.91 nM

— patent US20210395262A1, “INHIBITORS OF HUMAN IMMUNODEFICIENCY VIRUS REPLICATION” (ViiV HEALTHCARE UK (NO.5) LIMITED, priority 2018, published 2021)
